One may read the DC50 as the concentration giving 50% degradation. A lower DC50 goes with a more potent degrader. For orientation: Dmax means the largest share of the target that was removed. Read a low Dmax as shallow degradation. As a reminder, the IC50 is the midpoint of a concentration-inhibition curve. The low end stands for inhibition by little substance, the high end for a need for much substance.

What all share (type): cell-based
Assay [1] deals with T1, KRAS-G12D (Homo sapiens, UniProt P01116, G12D).
T1 construct: endogenous in cells; host or cells: A-427 (ATCC), AGS, AsPc-1, Panc 04.03
T1 sequence (P01116 1-188 isoform P01116-2 G12D): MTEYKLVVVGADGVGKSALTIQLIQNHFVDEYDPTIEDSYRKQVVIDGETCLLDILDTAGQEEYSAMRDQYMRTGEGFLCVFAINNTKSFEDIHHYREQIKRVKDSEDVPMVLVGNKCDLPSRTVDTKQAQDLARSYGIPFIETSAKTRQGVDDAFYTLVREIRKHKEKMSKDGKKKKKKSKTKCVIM
The experiment in a line: KRAS-G12D degradation assay (Western Blot), A-427 cells. Particulars: A427 cells, 24 h; for Dmax: A-427. In short, it runs like this:
(§1)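 Western blotting of lysates (5 μg protein) quantified KRAS against a β-actin reference after 24 h exposure to compound at final 0.03–3000 nM in 0.25% DMSO. Cells were A-427, AGS, AsPc-1 or Panc 04.03, all KRAS G12D, at 5×10^5/well. Degradation versus control yielded DC50 and Dmax.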

Assay [2] addresses T1, KRAS-G12D. Put plainly: KRAS-G12D degradation assay (Western Blot), AGS cells. To be noted: 24 h. On the procedure:
(§2) The degradation effects of the compounds on KRAS-G12D were investigated on KRAS G12D mutant human lung cancer cell A-427 (ATCC), KRAS G12D mutant human gastric cancer cell AGS, KRAS G12D mutant human metastatic pancreatic cancer cell AsPc-1, and KRAS G12D mutant human pancreatic adenocarcinoma cell Panc 04.03. The specific procedures were as follows: 0.95 mL of cells were seeded into each well of a 24-well cell culture plate to achieve a cell density of 5×10^5 cells/well; and the cell plate was incubated in an incubator at 37° C. with 5% CO2 overnight. Then 50 μL of the compound solution after dilution was added to each of the wells with the corresponding cells, so that the final concentration of the compound was in a range of 0.03-3000 nM. The final concentration of DMSO was 0.25%. After the compounds were added, the cell plate was incubated in the incubator at 37° C. with 5% CO2 for 24 h. The culture medium in the 24-well cell culture plate was removed, and the plate was washed twice with 1×PBS (KeyGEN). 120 μL of RIPA (strong) lysis buffer (Beyotime) supplemented with 1 mM phenylmethylsulfonyl fluoride, a protease inhibitor mixture (Beyotime), and a protease phosphatase inhibitor mixture (Beyotime) was added to lyse adherent A-427 cells at the bottom of the cell culture plate. After the plate was left to stand on ice for 30 min, the protein lysate in each well was transferred to a 1.5 mL centrifuge tube and centrifuged at 15000 g for 20 min at 4° C. The cell lysate supernatants after centrifugation were cryopreserved in a refrigerator at −80° C. for later use.
(§3) After the samples of the cell lysate supernatants that had been prepared were thawed from the refrigerator at −80° C., the total protein concentrations of the cell lysates were determined using a BCA protein quantification kit (Tiangen). The total protein concentrations of the samples were then adjusted to 0.5 μg/μL with PBS and 5×SDS-PAGE protein loading buffer (Beyotime), and the samples were incubated in a water bath at 100° C. for 15 min. The samples were then incubated in an ice bath for 5 min and centrifuged at 14000 g for 1 min at 4° C., and the supernatants were mixed well as loading samples for the Western Blot assay. The samples were loaded into wells of a 10% precast gel (KeyGEN) with a loading volume of 10 μL (total protein: 5 μg), a sufficient Tris-MOPS-SDS running buffer (Adamas) was added, and then electrophoresis was performed at a constant voltage of 120 V for 55 min. After the electrophoresis, the proteins on the gel were transferred to PVDF membranes at a constant current of 250 mA for 55 min. After the membrane transfer, the PVDF membranes were incubated in 1× Quick Block blocking buffer (Beyotime) at room temperature for 30 min. After the blocking, the PVDF membranes were separately incubated at 4° C. overnight with the KRAS antibody (Abcam) diluted in a ratio of 1:1000 and the […] antibody (Abcam) diluted in a ratio of 1:2000 in 5% BSA as the diluent, and then washed with 1×TBST buffer (2.4 g of Tris, 8.8 g of NaCl, 1.5 mL of Tween 20, with pH adjusted to 7.4, with the volume brought to 1 L) 3 times for 10 min/time. The membranes were incubated with a secondary antibody (Abcam) diluted in 5% BSA at room temperature for 2 h, and then washed with 1×TBST buffer 3 times for 10 min/time. Finally, the membranes were incubated with Clarity Western ECL Substrate (BIO-RAD) for 5 min for luminescence and color development, and a ChemiScope 6200 Touch chemiluminescence imaging system (Clinx) was used for color development and protein mapping. Gray value analysis of the protein maps was performed using the chemiluminescence analysis software (Clinx). The gray correction value for each sample was calculated using the formula: gray correction value=(gray value of target protein/gray value of corresponding internal reference)×10^3. Then degradation rates were calculated by comparison with the gray correction value of the control group. […]

The target of assay [3] is T1, KRAS-G12D. The experiment in a line: KRAS-G12D degradation assay (Western Blot), AsPc-1 cells. To be noted: for DC50: 24 h; for Dmax: ASPC1, 24 h. An outline of the steps: as §1
(In general: A western blot detects proteins with antibodies after separation by electrophoresis.)

For assay [4], the target named is T1, KRAS-G12D. Put plainly: KRAS-G12D degradation assay (Western Blot), Panc 04.03 cells. Particulars: 24 h. On the procedure: as §2, §3
The subject of assay [5] is KRAS G12D mutant human lung cancer cell A427. The experiment in a line: 3D cell proliferation inhibition assay, A427. To be noted: A-427, 168 h, A427, 7 days, CTG. In short, it runs like this: (§4)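 Compound dilutions are added to low-adsorption wells, then cells at 5×10^2 cells/well. Final compound range is 10000–0.026 nM, with 0.2% DMSO. After 7 days at 37 °C with 5% CO2, CTG reagent is added and luminescence is read 60 min later. IC50 is fitted from inhibition relative to DMSO and medium controls.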

For assay [6], the system named is KRAS G12D mutant human gastric cancer cell AGS. Put plainly: 3D cell proliferation inhibition assay, AGS. To be noted: 168 h, 7 days, CTG. An outline of the steps: as §4
For assay [7], the system named is KRAS G12D mutant human metastatic pancreatic cancer cell AsPc-1. The experiment in a line: 3D cell proliferation inhibition assay, AsPc-1. To be noted: ASPC1, 168 h, AsPc-1, 7 days, CTG. An outline of the steps: as §4
The subject of assay [8] is KRAS G12D mutant human pancreatic cancer cell Panc 04.03. Put plainly: 3D cell proliferation inhibition assay, Panc 04.03. To be noted: 168 h, Panc 04.03, 7 days, CTG. An outline of the steps: as §4
For assay [9], the system named is KRAS G12D mutant human pancreatic cancer cell HPAC. The experiment in a line: 3D cell proliferation inhibition assay, HPAC. To be noted: 168 h, 7 days, CTG. An outline of the steps: as §4

As for `C#Cc1cccc2cc(O)cc(-c3ncc4c(N5CC6CCC(C5)N6)nc(OCC5(CN6CCN(CC7CCC8(CC7)CCN(C(=O)c7ccc(OC)c(N9CCC(=O)NC9=O)c7)CC8)CC6)CC5)nc4c3F)c12` [Example 82, 1-(5-(9-((4-((1-(((4-(3,8-diazabicyclo[3.2.1]octan-3-yl)-7-(8-ethynyl-3-hydroxynaphthalen-1-yl)-8-fluoropyrido[4,3-d]pyrimidin-2-yl)oxy)methyl)cyclopropyl)methyl)piperazin-1-yl)methyl)-3-azaspiro[5.5]undecane-3-carbonyl)-2-methoxyphenyl)dihydropyrimidine-2,4(1H,3H)-dione], the 50% degradation concentration (DC50) in assay [1] (numeric values) came to 0.00121 µM; in assay [2], 0.00384 µM; in [3], 0.0126 µM; in assay [4], 0.00674 µM. The maximal degradation (Dmax) in assay [1] (numeric values) turned out to be 99%; in assay [2] it was 97.7%; in assay [3], 93.7%; in assay [4] it was 100%. Besides, the half-inhibitory concentration (IC50) in assay [5] (numeric values) was 0.0218 µM; in [6] (numeric values), 0.00578 µM; in assay [7] (numeric values), 0.00495 µM; in assay [8] (numeric values), 0.0141 µM; in assay [9], 0.00415 µM.

Turning to `CCc1cccc2cc(O)cc(-c3ncc4c(N5CC6CCC(C5)N6)nc(OCC5(CN6CCN(CC7CCC8(CC7)CCN(C(=O)c7ccc(Cl)c(N9CCC(=O)NC9=O)c7)CC8)CC6)CC5)nc4c3F)c12` [Example 50, 1-(5-(9-((4-((1-(((4-(3,8-diazabicyclo[3.2.1]octan-3-yl)-7-(8-ethyl-3-hydroxynaphthalen-1-yl)-8-fluoropyrido[4,3-d]pyrimidin-2-yl)oxy)methyl)cyclopropyl)methyl)piperazin-1-yl)methyl)-3-azaspiro [5.5]undecane-3-carbonyl)-2-chlorophenyl)dihydropyrimidine-2,4(1H,3H)-dione], the DC50 is at most 0.05 µM in [1] (class symbols), 0.00173 µM in assay [2], 0.0331 µM in [3] and 0.0319 µM in assay [4]. The maximal degradation (Dmax) is 80 to 100% in assay [1] (class symbols), 97.3% in assay [2], 100% in [3] and 99.3% in assay [4]. The IC50 in assay [5] (class symbols) was at most 0.05 µM; in [6] (class symbols), at most 0.05 µM; in assay [7] (class symbols), at most 0.05 µM; in assay [8] (class symbols) it was at most 0.05 µM; in assay [9], 0.0116 µM.

In the case of `CCc1cccc2cc(O)cc(-c3ncc4c(N5CC6CCC(C5)N6)nc(OCC5(CN6CCN(CC7CCC8(CC7)CCN(C(=O)c7ccc(C)c(N9CCC(=O)NC9=O)c7)CC8)CC6)CC5)nc4c3F)c12` [Example 51, 1-(5-(9-((4-((1-(((4-(3,8-diazabicyclo[3.2.1]octan-3-yl)-7-(8-ethyl-3-hydroxynaphthalen-1-yl)-8-fluoropyrido[4,3-d]pyrimidin-2-yl)oxy)methyl)cyclopropyl)methyl)piperazin-1-yl)methyl)-3-azaspiro[5.5]undecane-3-carbonyl)-2-methylphenyl)dihydropyrimidine-2,4(1H,3H)-dione], the DC50 in assay [1] (class symbols) is at most 0.05 µM; in assay [2], 0.00987 µM; in assay [3], 0.00479 µM; in assay [4] it was 0.023 µM. The greatest degradation seen (Dmax) was 80 to 100% in assay [1] (class symbols), 97.2% in [2], 99.4% in assay [3] and 93.8% in assay [4]. For the same compound, the IC50 in assay [5] (class symbols) was at most 0.05 µM; in [6] (class symbols), at most 0.05 µM; in [7] (class symbols), at most 0.05 µM; in assay [8] (class symbols) it was at most 0.05 µM; in assay [9], 0.00455 µM.

As to `CCc1c(F)ccc2cc(O)cc(-c3ccc4c(N5CC6CCC(C5)N6)nc(OCC5(CN6CCN(CC7CCC8(CC7)CCN(C(=O)c7ccc(OC)c(N9CCC(=O)NC9=O)c7)CC8)CC6)CC5)nc4c3F)c12` [Example 73, 1-(5-(9-((4-((1-(((4-(3,8-diazabicyclo[3.2.1]octan-3-yl)-7-(8-ethyl-7-fluoro-3-hydroxynaphthalen-1-yl)-8-fluoroquinazolin-2-yl)oxy)methyl)cyclopropyl)methyl)piperazin-1-yl)methyl)-3-azaspiro[5.5]undecane-3-carbonyl)-2-methoxyphenyl)dihydropyrimidine-2,4(1H,3H)-dione], the DC50 in assay [1] (numeric values) is 0.0198 µM; in assay [2] it was 0.016 µM; in [3], 0.0357 µM; in assay [4], 0.0271 µM. The maximal degradation (Dmax) turned out to be 87.2% in [1] (numeric values), 85.7% in [2], 100% in [3] and 95.6% in assay [4]. Further, the half-maximal inhibitory concentration (IC50) in assay [5] (numeric values) is 0.00354 µM; in [6] (numeric values), 0.0211 µM; in [7] (numeric values), 0.0149 µM; in [8] (numeric values), 0.0648 µM; in assay [9], 0.0147 µM.

Regarding `CCc1c(F)ccc2cc(O)cc(-c3ccc4c(N5CC6CCC(C5)N6)nc(OCC5(CN6CCN(CC7CCC8(CC7)CCN(C(=O)c7ccc(C)c(N9CCC(=O)NC9=O)c7)CC8)CC6)CC5)nc4c3F)c12` [Example 75, 1-(5-(9-((4-((1-(((4-(3,8-diazabicyclo[3.2.1]octan-3-yl)-7-(8-ethyl-7-fluoro-3-hydroxynaphthalen-1-yl)-8-fluoroquinazolin-2-yl)oxy)methyl)cyclopropyl)methyl)piperazin-1-yl)methyl)-3-azaspiro[5.5]undecane-3-carbonyl)-2-methylphenyl)dihydropyrimidine-2,4(1H,3H)-dione], the DC50 in [1] (numeric values) is 0.00413 µM; in [2] it was 0.0578 µM; in assay [3], 0.00879 µM; in [4], 0.00938 µM. The Dmax in [1] (numeric values) is 83.8%; in assay [2], 89.2%; in assay [3], 99.5%; in assay [4] it was 92%. Besides, the concentration for half-maximal inhibition (IC50) in assay [5] (numeric values) turned out to be 0.0881 µM; in [6] (numeric values) it was 0.0091 µM; in [7] (numeric values), 0.0149 µM; in assay [8] (numeric values) it was 0.0839 µM; in assay [9] it was 0.0113 µM.

Source of the values: patent US20260166159A1, “KRAS G12D DEGRADATION AGENT, AND PREPARATION METHOD AND USE THEREFOR” (LEADINGTAC PHARMACEUTICAL (SHAOXING) CO., LTD., priority 2022, published 2026).
